Values after ≈ are worked out from the molar mass of the structure shown. Read-outs that look alike come from different tables or passages of the source.
Legend:
[1] = test system: Novel coronavirus (SARS-COV-2); experiment: Antiviral activity against Novel Coronavirus; format: cell-based
[2] = test system: Chikungunya virus (CHIKV); experiment: Antiviral activity against Chikungunya Virus; format: cell-based
Dengue Virus 2 = experiment: Antiviral activity against Dengue Virus 2; format: cell-based
Influenza A H1N1 = experiment: Antiviral activity against Influenza A H1N1; format: cell-based
[3] = test system: Middle East Respiratory Syndrome Coronavirus (MERS-COV); experiment: microbe, parasite or virus in culture; format: cell-based; details: Vero 76
[4] = test system: Rift Valley Fever Virus (RVFV); experiment: microbe, parasite or virus in culture; format: cell-based
Tacaribe Virus (TCRV) = experiment: microbe, parasite or virus in culture; format: cell-based
[5] = test system: Human Coronavirus (α) 229E; experiment: Antiviral activity against Human Coronavirus (α); format: cell-based
[6] = test system: Human Coronavirus (β) OC43; experiment: Antiviral activity against Human Coronavirus (β); format: cell-based
Herpes Simplex Virus 1 = experiment: Antiviral activity against Herpes Simplex Virus 1; format: cell-based
Herpes Simplex Virus 2 = experiment: Antiviral activity against Herpes Simplex Virus 2; format: cell-based
Varicella-zoster Virus = experiment: Antiviral activity against Varicella-zoster Virus; format: cell-based
[7] = test system: human papillomavirus (HPV); experiment: Antiviral activity against human papillomavirus (HPV), overall conclusion; format: cell-based
Method: When the SI50 value>10, the compound was determined to be active against the virus.

other viruses = experiment: Antiviral activity against other (non-HPV) viruses, overall conclusion; format: cell-based
HPV11 [8] = details: Human Papillomavirus 11 HE611260.1, C-33 A
HPV16 [9] = details: Human Papillomavirus 16 KP212151.1, C-33 A
HPV18 [10] = details: Human Papillomavirus 18 KC470230.1, C-33 A
Huh7 = details: human
in vitro [11] = details: human
in vitro [12] = details: human; remark: listed apart in the source
in vitro [13] = details: dog
in vitro [14] = details: African green monkey
in vitro [15] = details: human; remark: listed apart in the source
HPV11 [16] = experiment: microbe, parasite or virus in culture; details: human papillomavirus 11, C-33-A
HPV16 [17] = experiment: microbe, parasite or virus in culture; details: Human papillomavirus 16, C-33-A
HPV18 [18] = experiment: microbe, parasite or virus in culture; details: human papillomavirus 18, C-33-A
HPV6 = HPV6 transient transfection reporter plasmid replication assay; details: for EC50 / EC90: Alphapapillomavirus 10, C-33-A
[19] = Human Papillomavirus 16 KP212151.1, C-33 A, 0.001-250 μM
[20] = Human Papillomavirus 16 KP212151.1, C-33 A, 0.048-150 μM
[21] = Human Papillomavirus 6 FR751330.1, C-33 A
[22] = HPV16 strain KP212151.1, C-33 A, concentration range 0.001-250 μM

## O=[N+]([O-])c1ccc(O)c2ncccc12
[1]
  SI50 (CC50/EC50): 3.1
[1]; Severe acute respiratory syndrome coronavirus 2, Vero 76
  EC50: 0.32 µg/mL (≈ 1.68 µM)
[2]
  SI50 (CC50/EC50): 0
[2]; Chikungunya virus, Vero 76
  EC50: > 0.86 µg/mL
Dengue Virus 2
  SI50 (CC50/EC50): 1.3
Dengue Virus 2; Dengue virus, Huh-7
  EC50: 0.32 µg/mL (≈ 1.68 µM)
Influenza A H1N1
  SI50 (CC50/EC50): 3.8
Influenza A H1N1; Influenza A virus, H1N1, MDCK
  EC50: 0.32 µg/mL (≈ 1.68 µM)
[3]; MERS Coronavirus EMC
  SI50 (CC50/EC50): 0
[3]; Middle East respiratory syndrome-related coronavirus
  EC50: > 0.32 µg/mL
[4]; Rift Valley Fever Virus MP-12, Vero 76
  SI50 (CC50/EC50): 1
[4]; Rift Valley fever virus, Vero 76
  EC50: > 0.16 µg/mL
Tacaribe Virus (TCRV); Mammarenavirus tacaribeense, Vero
  EC50: < 0.1 µg/mL
Tacaribe Virus (TCRV); Tacaribe Virus TRVL 11573, Vero
  SI50 (CC50/EC50): 1
[5]
  SI50 (CC50/EC50): 1.3
[5]; unidentified human coronavirus, Huh-7
  EC50: 0.32 µg/mL (≈ 1.68 µM)
[6]
  SI50 (CC50/EC50): 0
[6]; unidentified human coronavirus, OC43
  EC50: > 0.37 µg/mL
Herpes Simplex Virus 1
  SI50 (CC50/EC50): <3.0
Herpes Simplex Virus 1; Human alphaherpesvirus 1
  EC50: > 1.2 µM
Herpes Simplex Virus 2
  SI50 (CC50/EC50): <4
Herpes Simplex Virus 2; Human alphaherpesvirus 2
  EC50: > 1.2 µM
Varicella-zoster Virus
  SI50 (CC50/EC50): <3
Varicella-zoster Virus; Human alphaherpesvirus 3
  EC50: > 0.24 µM
[7]; HPV, Tables 1 and 2
  antiviral activity compared with the positive control drug: better than that of the positive control drug
[7]; active when SI50 value>10
  inhibitory activity against HPV: specific inhibitory activity against HPV
Other viruses
  inhibitory activity against other viruses: not observed against other viruses
HPV11 [8]
  SI50 (CC50/EC50): 53
  SI90: 19
HPV16 [9]; 0.001-250 μM
  SI50 (CC50/EC50): 297
  SI90: 143
HPV16 [9]; 0.048-150 μM
  SI50 (CC50/EC50): 23
  SI90: 13
HPV18 [10]
  SI50 (CC50/EC50): 64
  SI90: 16
Huh7
  CC50: 0.4 µg/mL (≈ 2.1 µM)
In vitro [11]
  CC50 at 48 h: 55.5 µM
In vitro [12]
  CC50: 0.42 µg/mL (≈ 2.21 µM)
In vitro [13]
  CC50: 1.2 µg/mL (≈ 6.31 µM)
In vitro [14]
  CC50: < 0.1 µg/mL
In vitro [15]
  CC50: 0.37 µg/mL (≈ 1.95 µM)
HPV11 [16]
  EC50: 1.04 µM
  EC90: 2.99 µM
HPV16 [17]; [19]
  EC50: 0.26 µM
  EC90: 0.54 µM
HPV16 [17]; [20]
  EC50: 2.82 µM
  EC90: 5.11 µM
HPV18 [18]
  EC50: 1.01 µM
  EC90: 3.99 µM
HPV6
  EC50: 0.86 µM
  EC90: 5.41 µM
HPV6; [21]
  SI50 (CC50/EC50): 55
  SI90: 9

## Nc1nc2c(ncn2CCOCP(=O)(O)O)c(=O)[nH]1 [9-[2-(phosphonomethoxy)ethyl]guanine]
HPV11 [16]
  EC50: 1.03 µM
  EC90: 4.47 µM
HPV16 [17]; [22]
  EC50: 0.28 µM
  EC90: 2.3 µM
HPV18 [18]
  EC50: 0.63 µM
  EC90: > 150 µM
HPV6
  EC50: 0.56 µM
  EC90: 6.35 µM

Reference: patent US20240238269A1
